Measured values from patent US4330553A, “7-Oxo-PGI2 -derivatives and process for the preparation thereof and pharmaceutical compositions containing same” (Chinoin Gyogyszer es Vegyeszeti Termekek Gyara R.T., priority 1979, dated 1982).
Values after ≈ are worked out from the molar mass of the structure shown. Where a name gives a salt, the structure may show the parent alone. Read-outs that look alike come from different tables or passages of the source.

Experiments:
thrombocytes = assay: Thrombocyte aggregation inhibiting activity in human plasma enriched with thrombocytes (aggregation induced with ADP or collagen); assay type: cell-based
From the text: ID50 concentrations in case of aggregation generated with ADP and collagen resp. in plasma enriched with thrombocytes (PRB) isolated from human blood are as disclosed hereinbelow. As a comparison ID50 concentration values obtained with PGI2 sodium salt under the same test conditions are given.

[1] = acidic or neutral medium; decomposes to 6-keto-PGF1α; cited from earlier work
[2] = aggregation induced with ADP, read-out: ID50, thrombocyte aggregation inhibiting activity, ADP
[3] = aggregation induced with collagen, read-out: ID50, thrombocyte aggregation inhibiting activity, collagen

Row | IC50 (thrombocytes; [2]) [µg/mL] | IC50 (thrombocytes; [3]) [µg/mL] | SMILES | stability of PGI2 [1]
1 | 0.001 to 0.002 | 0.001 to 0.002 | CCCCC[C@H](O)/C=C/[C@@H]1[C@H]2C/C(=C/CCCC(=O)O)O[C@H]2C[C@H]1O [Sodium salt of PGI2, reference compound] | 
2 |  |  | CCCCC[C@H](O)/C=C/[C@@H]1[C@H]2C/C(=C/CCCC(=O)O)O[C@H]2C[C@H]1O [PGI2] | immediately decomposes
3 | 0.1 to 0.2 (≈ 0.263 to 0.526 µM) | 0.05 (≈ 0.131 µM) | CCCCC[C@H](O)/C=C/[C@@H]1[C@H]2C(=O)/C(=C/CCCC(=O)OC)O[C@H]2C[C@H]1O [7-Oxo-PGI2-methyl ester, 7-Oxo-PGI2-methylester] | 
4 | 0.015 | 0.08 | CCCCC[C@H](O)/C=C/[C@@H]1[C@H]2C(=O)/C(=C/CCCC(=O)O)O[C@H]2C[C@H]1O [Sodium salt of 7-oxo-PGI2] | 
